In PMC8909805, “Anticancer Activity of (S)-5-Chloro-3-((3,5-dimethylphenyl)sulfonyl)-N-(1-oxo-1-((pyridin-4-ylmethyl)amino)propan-2-yl)-1H-indole-2-carboxamide (RS4690), a New Dishevelled 1 Inhibitor” (Cancers, 2022):

Target: T1, DVL1 binding to FZD4 (Homo sapiens, UniProt O14640)
T1 construct: host or cells: HEK293
T1 sequence (O14640 1-695): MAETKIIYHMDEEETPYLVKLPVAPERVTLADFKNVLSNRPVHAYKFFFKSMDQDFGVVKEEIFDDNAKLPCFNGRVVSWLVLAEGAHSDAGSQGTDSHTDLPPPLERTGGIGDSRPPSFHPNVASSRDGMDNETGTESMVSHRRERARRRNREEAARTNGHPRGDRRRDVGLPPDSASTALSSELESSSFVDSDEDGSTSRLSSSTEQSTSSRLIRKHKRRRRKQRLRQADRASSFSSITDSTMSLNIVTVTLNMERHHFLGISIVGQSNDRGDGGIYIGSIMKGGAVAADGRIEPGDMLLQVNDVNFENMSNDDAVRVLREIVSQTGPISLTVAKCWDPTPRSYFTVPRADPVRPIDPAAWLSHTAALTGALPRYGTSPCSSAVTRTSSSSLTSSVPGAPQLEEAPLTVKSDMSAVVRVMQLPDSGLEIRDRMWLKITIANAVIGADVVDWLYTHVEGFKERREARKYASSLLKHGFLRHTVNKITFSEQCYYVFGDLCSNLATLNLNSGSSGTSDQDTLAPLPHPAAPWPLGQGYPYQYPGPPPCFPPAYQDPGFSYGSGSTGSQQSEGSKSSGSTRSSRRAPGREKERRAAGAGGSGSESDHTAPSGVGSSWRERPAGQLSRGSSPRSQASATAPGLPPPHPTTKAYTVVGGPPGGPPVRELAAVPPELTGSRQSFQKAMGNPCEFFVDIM
Assay: Inhibition of DVL1 (DVL-GFP) recruitment by FZD4 at the plasma membrane of HEK293 cells
Assay type: cell-based
Conditions: HEK293 cells co-transfected with HA-FZD4 and GFP-DVL-1; 24 h treatment; read-out: EC50 ± SD DVL1 Binding Inhibition
Experimental: HEK293 cells were seeded in 96-well tissue culture plates at a density of 5 × 10 ^3/well. After 16–24 h seeding, cells were co-transfected with HA-FZD4-wt (0.04 µg/well) and GFP-tagged DVL-1 (0.04 µg/well) using PEI (0.25 µL/well) in a final volume of 100 µL/well. After 24 h of transfection, the medium was replaced and supplemented with the indicated compounds diluted in culture medium. After 24 h of treatment, cells were fixed in 3.7% formaldehyde freshly diluted in PBS for 30 min at RT, quenched with 0.1 M glycine/PBS for 30 min at RT, and washed with PBS. Samples were observed under a Leica confocal fluorescent microscope. Inhibition of DVL recruitment was measured by counting the percentage of cells losing GFP-DVL-1 localization on the PM. Experiments were performed in triplicate, and the standard deviations are indicated.
The crucial role played by PDZ domains in the spreading of cellular signals and their aberrant activations in many human diseases makes the PDZ domains very attractive targets for drug discovery. […] To identify new DVL1 inhibitors, we followed a virtual screening approach by fixing as the main filter a pharmacophoric model. We speculated that compound 2, the recently reported inhibitor of NHERF1 PDZ1 domain [26], may be able also to bind the DVL PDZ domain. The activity of compound 2 was assayed in HEK293 cells transiently expressing both HA-tagged-FZD4 (HA-FZD4) and the chimeric construct DVL-GFP. In the absence of HA-FZD4, DVL-GFP is localized in punctate intracellular structures known as signalosomes. In the presence of FZD-4 expression, DVL-GFP is recruited on the PM of the cell showing a drastic change in localization. As previously reported, drugs acting as inhibitors of FZD4/DVL binding reduce the amount of DVL-GFP recruited on the PM. […] Thus, we used the information gained from the binding mode of compound 2 to design a pharmacophore model that would lead to the identification of new DVL1 PDZ binders. At the same time, to better distinguish between the inhibitory activities of DVL1 and NHERF1, we added a new query to the pharmacophore model. Actually, comparing the PDZ structures of the studied proteins, we identified a significant difference. The upper part of the carboxylic binding loop was delimited by Tyr24, Ile79 and Val86 for NHERF1, while we observed Leu12, Val75 and Ile81, respectively, for DVL1. […] This peculiar feature of the DVL1 PDZ was included in our pharmacophore model by adding a hydrophobic query to obtain the required selectivity (Figure S1, Supplementary Materials). […] Thus, for each molecule, we obtained 10 conformations, and all of the proposed binding poses (7000 molecules per 10 conformations) were scored by the fitting to the pharmacophore model. […]

Row | Compound | EC50
1 | Cc1cc(C)cc(S(=O)(=O)c2c(C(=O)N[C@H](C)C(=O)NCc3ccncc3)[nH]c3ccc(Cl)cc23)c1 [(R)-1] | 29500 ± 900 nM
2 | Cc1cc(C)cc(S(=O)(=O)c2c(C(=O)NC(C)C(=O)NCc3ccncc3)[nH]c3ccc(Cl)cc23)c1 (stereo not drawn) [Compound 1] | 740 ± 80 nM
3 | Cc1cc(C)cc(S(=O)(=O)c2c(C(=O)N[C@@H](C)C(=O)NCc3ccncc3)[nH]c3ccc(Cl)cc23)c1 [(S)-1, (S)-5-Chloro-3-((3,5-dimethylphenyl)sulfonyl)-N-(1-oxo-1-((pyridin-4-ylmethyl)amino)propan-2-yl)-1H-indole-2-carboxamide] | 490 ± 110 nM
